For series [1], the target named is Carbonic anhydrase 9 (Homo sapiens, UniProt Q16790).
Description: Inhibition of human carbonic anhydrase-9 catalytic domain assessed as reduction in CO2 hydration after 15 mins by phenol red dye based stopped flow assay
The test system of series [2] is Mus musculus. Description: Anticonvulsant activity in ip dosed mouse assessed as reduction in PTZ-induced seizures pretreated for 30 mins followed by PTZ addition. Format: functional, organism-based.
Series [3] in a line: Toxicity in mouse assessed as sedation at 20 to 30 mg/kg. Format: organism-based. Particulars: in vivo.
The nature of series [4]: Toxicity in mouse in mouse model of PTZ-induced seizures assessed as clonus occurance at 20 to 30 mg/kg, ip pretreated for 30 mins followed by PTZ addition. In kind it is organism-based. Particulars: in vivo.
The species entered for series [5] is Mus musculus. As to the kind of experiment: animal or person.
Description: Anticonvulsant activity in mouse assessed as reduction in PTZ-induced seizures

Active and inactive are the calls of the source. No cut-off for these calls is given here.

One may read the Ki as a dissociation constant, usually derived from enzyme kinetics or from competition with a known ligand. As for `CC(=O)C1(c2ccccc2)CCN(C(=O)c2ccc(S(N)(=O)=O)cc2)CC1`, in series [1], the Ki was 3.1 nM.

In the case of `NS(=O)(=O)c1ccc(C(=O)N2CCCCCC2)cc1`, the affinity in series [1] corresponds to a Ki of 16.8 nM. This Ki is about 5.4-fold higher than that of the molecule before.

For `NS(=O)(=O)c1ccc(C(=O)N2CCC(O)(c3ccc(Br)cc3)CC2)cc1`, the outcome in series [2] was Active. The Activity result in series [3] and in series [4] was “Toxic” in each case. This molecule had a Ki in series [1] of 4.7 nM.

Regarding `CC1CCN(C(=O)c2ccc(S(N)(=O)=O)cc2)CC1`, in series [1], the affinity corresponds to a Ki of 3.4 nM.

In series [1], `CC1CCCCN1C(=O)c1ccc(S(N)(=O)=O)cc1` (centres undefined) registered a Ki of 2.6 nM.

Consider `NS(=O)(=O)c1ccc(C(=O)N2CCN(Cc3ccccc3)CC2)cc1`, for which, in series [1], the affinity corresponds to a Ki of 33.1 nM.

`N#CC1(c2ccccc2)CCN(C(=O)c2ccc(S(N)(=O)=O)cc2)CC1` registered a Ki in series [1] of 18.4 nM.

One may read the ED50 as the midpoint of the dose-response relation. Lower therefore signals greater potency. In series [5], `CC1(C)O[C@@H]2[C@@H](CO[C@@]3(COS(N)(=O)=O)OC(C)(C)O[C@@H]23)O1` [TOPIRAMATE] registered an ED50 of 22 mg/kg.

`NS(=O)(=O)c1ccc(C(=O)N2CCN(C(c3ccccc3)c3ccccc3)CC2)cc1`: the outcome in series [2] was Active. Moreover, the Activity entry in series [3] and in series [4] was “Toxic” each time. The Ki in series [1] came to 28.2 nM.

As for `NS(=O)(=O)c1ccc(C(=O)N2CCCCC2)cc1`, in series [1], the Ki turned out to be 3.1 nM.

In series [1], `NS(=O)(=O)c1ccc(C(=O)N2CCC(O)(c3ccc(Cl)cc3)CC2)cc1` had a Ki of 24.9 nM. Compared with the last molecule, the Ki is about 8-fold higher.

As to `NS(=O)(=O)c1ccc(C(=O)N2CCC(c3ccccc3)CC2)cc1`, the result in series [2] was Active. Further, the Activity entry in series [3] and in series [4] was “Toxic” in each case. This molecule also had a Ki in series [1] of 3.3 nM.

On to `NS(=O)(=O)c1ccc(C(=O)N2CCN(Cc3ccc(F)cc3)CC2)cc1`, for which, in series [2], the outcome was Active. Further, the Activity result in series [3] and in series [4] was “Toxic” in each case. The affinity in series [1], expressed as Ki, was 45.1 nM.

`NS(=O)(=O)c1ccc(C(=O)N2CCC(Cc3ccccc3)CC2)cc1` came in with a Ki in series [1] of 7 nM.

In the case of `NS(=O)(=O)c1ccc(C(=O)N2CCC(O)(c3ccccc3)CC2)cc1`, in series [1], the Ki was found to be 22.6 nM. This Ki lies about 3.2-fold higher than the previous one.

On to `NS(=O)(=O)c1ccc(C(=O)N2CCN(c3ccccc3)CC2)cc1`, for which the Ki in series [1] is 4.8 nM. This Ki lies about 4.7-fold lower than the previous one.

As to `CC1CCCN(C(=O)c2ccc(S(N)(=O)=O)cc2)C1` (centres undefined), in series [1], the Ki came to 2.4 nM.

These data come from ChEMBL document CHEMBL4330089, “Exploring structural properties of potent human carbonic anhydrase inhibitors bearing a 4-(cycloalkylamino-1-carbonyl)benzenesulfonamide moiety” (Eur J Med Chem, 2019).
